Experimental data published in ChEMBL document CHEMBL1909046, “DrugMatrix in vitro pharmacology data”.

How the values were obtained:
[1] = biological target: Sigma non-opioid intracellular receptor 1 (Homo sapiens, UniProt Q99720); experiment: DRUGMATRIX: Sigma1 radioligand binding (ligand: [3H] Haloperidol); assay type: cell membranes, Jurkat, Membrane; details: jurkat; Not Active = under 50% inhibition at 10 µM
[2] = DRUGMATRIX: Calcium Channel Type L, Phenylalkylamine radioligand binding (ligand: [3H] (-)-Desmethoxyverapamil (D-888)); assay type: cell membranes, Rattus norvegicus, Wistar, Brain, Membrane; details: Not Active = under 50% inhibition at 10 µM
[3] = biological target: T1, C-X-C chemokine receptor type 2 (Homo sapiens, UniProt P25025); assay type: cell membranes, CHO-K1, Membrane; details: cho-k1; further: in other assays of this panel Not Active means under 50% inhibition at 10 µM
T1 sequence (P25025 whole entry): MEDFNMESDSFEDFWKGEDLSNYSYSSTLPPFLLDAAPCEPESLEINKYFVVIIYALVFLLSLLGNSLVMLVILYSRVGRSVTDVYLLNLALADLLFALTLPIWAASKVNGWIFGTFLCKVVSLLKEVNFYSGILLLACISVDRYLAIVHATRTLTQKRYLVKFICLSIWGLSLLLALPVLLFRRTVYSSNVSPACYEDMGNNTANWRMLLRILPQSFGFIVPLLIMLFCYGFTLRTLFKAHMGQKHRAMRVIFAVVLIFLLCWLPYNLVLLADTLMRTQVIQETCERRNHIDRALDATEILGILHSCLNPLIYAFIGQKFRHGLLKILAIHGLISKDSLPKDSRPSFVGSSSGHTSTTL

[4] = DRUGMATRIX: Nicotinic Acetylcholine radioligand binding (ligand: [125I] Epibatidine); assay type: cell membranes, Membrane; details: imr-32; Not Active = under 50% inhibition at 10 µM
[5] = DRUGMATRIX: Phorbol Ester radioligand binding (ligand: [3H] PDBu); assay type: cell membranes, Mus musculus, ICR, Brain, Membrane; details: Not Active = under 50% inhibition at 10 µM
[6] = biological target: Tyrosine-protein kinase Fyn (Homo sapiens, UniProt P06241); experiment: biochemical; assay type: cell-based, Insect cells; details: insect cells;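 further: enzymatic inhibition of Fyn kinase activity measured with Poly(Glu:Tyr) as the phosphorylation substrate; in other assays of this panel Not Active means under 50% inhibition at 10 µM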
Tyrosine-protein kinase Fyn, sequence (P06241 whole entry): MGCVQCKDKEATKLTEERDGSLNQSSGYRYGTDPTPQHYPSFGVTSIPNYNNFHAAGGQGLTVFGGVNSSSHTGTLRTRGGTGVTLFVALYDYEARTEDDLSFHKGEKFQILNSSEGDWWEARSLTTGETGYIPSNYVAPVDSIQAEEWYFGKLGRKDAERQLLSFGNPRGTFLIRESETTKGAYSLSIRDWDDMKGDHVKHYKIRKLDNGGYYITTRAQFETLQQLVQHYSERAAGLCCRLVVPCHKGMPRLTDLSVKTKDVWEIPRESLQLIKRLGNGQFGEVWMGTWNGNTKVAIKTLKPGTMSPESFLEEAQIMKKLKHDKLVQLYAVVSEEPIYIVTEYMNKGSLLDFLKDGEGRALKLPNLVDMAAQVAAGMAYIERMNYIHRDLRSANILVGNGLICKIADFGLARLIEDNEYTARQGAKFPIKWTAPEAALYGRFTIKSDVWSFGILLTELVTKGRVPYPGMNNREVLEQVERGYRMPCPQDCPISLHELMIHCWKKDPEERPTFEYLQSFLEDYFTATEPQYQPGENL

Sigma non-opioid intracellular receptor 1, sequence (Q99720 whole entry): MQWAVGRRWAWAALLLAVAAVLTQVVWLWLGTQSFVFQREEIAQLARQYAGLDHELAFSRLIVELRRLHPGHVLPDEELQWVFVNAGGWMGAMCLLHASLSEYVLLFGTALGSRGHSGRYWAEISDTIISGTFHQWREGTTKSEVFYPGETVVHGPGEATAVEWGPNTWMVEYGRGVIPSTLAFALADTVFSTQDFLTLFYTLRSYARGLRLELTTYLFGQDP

CC12CCC(CC1=O)C2(C)C (stereo not drawn) [CAMPHOR]
Not Active: IC50 [1] | IC50 [2] | Ki [2] | IC50 [3] | IC50 [4] | Ki [4] | IC50 [5] | Ki [5] | IC50 [6]

CCC1(c2ccccc2)C(=O)NC(=O)NC1=O [PHENOBARBITAL]
Not Active: IC50 [1] | IC50 [2] | Ki [2] | IC50 [3] | IC50 [4] | Ki [4] | IC50 [5] | Ki [5] | IC50 [6]

C[N+](C)(C)CCOP(=O)([O-])OC[C@H](O)CO
Not Active: IC50 [1] | IC50 [2] | Ki [2] | IC50 [3] | IC50 [4] | Ki [4] | IC50 [5] | Ki [5] | IC50 [6]

Oc1ccccc1 [PHENOL]
Not Active: IC50 [1] | IC50 [2] | Ki [2] | IC50 [3] | IC50 [4] | Ki [4] | IC50 [5] | Ki [5] | IC50 [6]

Nc1nc(F)nc2c1ncn2[C@@H]1O[C@H](CO)[C@@H](O)[C@@H]1O [FLUDARABINE]
Not Active: IC50 [1] | IC50 [2] | Ki [2] | IC50 [3] | IC50 [4] | Ki [4] | IC50 [5] | Ki [5] | IC50 [6]

c1ccc(Cn2ccnc2)cc1
Not Active: IC50 [1] | IC50 [2] | Ki [2] | IC50 [3] | IC50 [4] | Ki [4] | IC50 [5] | Ki [5] | IC50 [6]

Nc1nc(N)c2nc(CNc3ccc(C(=O)N[C@@H](CCC(=O)O)C(=O)O)cc3)cnc2n1 [AMINOPTERIN]
Not Active: IC50 [1] | IC50 [2] | Ki [2] | IC50 [3] | IC50 [4] | Ki [4] | IC50 [5] | Ki [5] | IC50 [6]

C=C(Cl)Cl [1,1-DICHLOROETHENE]
Not Active: IC50 [1] | IC50 [2] | Ki [2] | IC50 [3] | IC50 [4] | Ki [4] | IC50 [5] | Ki [5] | IC50 [6]

Oc1ncnc2[nH]ncc12 [ALLOPURINOL]
Not Active: IC50 [1] | IC50 [2] | Ki [2] | IC50 [3] | IC50 [4] | Ki [4] | IC50 [5] | Ki [5] | IC50 [6]

O=C(O)CCc1nc(-c2ccccc2)c(-c2ccccc2)o1 [OXAPROZIN]
Not Active: IC50 [1] | IC50 [2] | Ki [2] | IC50 [3] | IC50 [4] | Ki [4] | IC50 [5] | Ki [5] | IC50 [6]

ClC1=C(Cl)[C@]2(Cl)[C@@H]3[C@@H]4C[C@@H]([C@H]5O[C@@H]45)[C@@H]3[C@@]1(Cl)C2(Cl)Cl [DIELDRIN]
Not Active: IC50 [1] | IC50 [2] | Ki [2] | IC50 [3] | IC50 [4] | Ki [4] | IC50 [5] | Ki [5] | IC50 [6]

CC1(COc2ccc(CC3SC(=O)NC3=O)cc2)CCCCC1 (stereo not drawn) [CIGLITAZONE]
Not Active: IC50 [1] | IC50 [2] | Ki [2] | IC50 [3] | IC50 [4] | Ki [4] | IC50 [5] | Ki [5] | IC50 [6]

OC[C@H]1O[C@@H]2O[C@H]3[C@H](O)[C@@H](O)[C@@H](O[C@H]4[C@H](O)[C@@H](O)[C@@H](O[C@H]5[C@H](O)[C@@H](O)[C@@H](O[C@H]6[C@H](O)[C@@H](O)[C@@H](O[C@H]7[C@H](O)[C@@H](O)[C@@H](O[C@H]8[C@H](O)[C@@H](O)[C@@H](O[C@H]1[C@H](O)[C@H]2O)O[C@@H]8CO)O[C@@H]7CO)O[C@@H]6CO)O[C@@H]5CO)O[C@@H]4CO)O[C@@H]3CO [BETADEX]
Not Active: IC50 [1] | IC50 [2] | Ki [2] | IC50 [3] | IC50 [4] | Ki [4] | IC50 [5] | Ki [5] | IC50 [6]

COc1ccc(Cl)cc1C(=O)NCCc1ccc(S(=O)(=O)NC(=O)NC2CCCCC2)cc1 [GLYBURIDE]
Not Active: IC50 [1] | IC50 [2] | Ki [2] | IC50 [3] | IC50 [4] | Ki [4] | IC50 [5] | Ki [5] | IC50 [6]

COC(=O)Nc1nc2ccc(Sc3ccccc3)cc2[nH]1 [FENBENDAZOLE]
Not Active: IC50 [1] | IC50 [2] | Ki [2] | IC50 [3] | IC50 [4] | Ki [4] | IC50 [5] | Ki [5] | IC50 [6]

CNC[C@H](O)c1ccc(O)c(O)c1 [EPINEPHRINE]
Not Active: IC50 [1] | IC50 [2] | Ki [2] | IC50 [3] | IC50 [4] | Ki [4] | IC50 [5] | Ki [5] | IC50 [6]

C=CCO [ALLYL ALCOHOL]
Not Active: IC50 [1] | IC50 [2] | Ki [2] | IC50 [3] | IC50 [4] | Ki [4] | IC50 [5] | Ki [5] | IC50 [6]

CARBOXYMETHYLCELLULOSE
Not Active: IC50 [1] | Ki [1] | IC50 [2] | Ki [2] | IC50 [3] | Ki [3] | IC50 [4] | Ki [4] | IC50 [5] | Ki [5] | IC50 [6] | Ki [6]

C=CCN1CC[C@]23c4c5ccc(O)c4O[C@H]2/C(=N/N=C2\CC[C@@]4(O)[C@H]6Cc7ccc(O)c8c7[C@@]4(CCN6CC=C)[C@H]2O8)CC[C@@]3(O)[C@H]1C5 [NALOXONAZINE]
Not Active: IC50 [1] | IC50 [2] | Ki [2] | IC50 [3] | IC50 [4] | Ki [4] | IC50 [5] | Ki [5] | IC50 [6]

Cc1ccnc2c1NC(=O)c1cccnc1N2C1CC1 [NEVIRAPINE]
Not Active: IC50 [1] | IC50 [2] | Ki [2] | IC50 [3] | IC50 [4] | Ki [4] | IC50 [5] | Ki [5] | IC50 [6]
